Values of other authors as cited in PMC13343212, “Hybrid Aminoferrocenes With Nitrate Esters for In Situ Peroxynitrite Generation: Complex Interplay Between Redox Chemistry, NO‐Donor Reactivity, and Aminoferrocene Activation Influences In Vitro Anticancer Activity” (Chembiochem, 2026).

Settings: references for RP‐TLC calibration

SMILES | LogP of known references
c1cc2cccc3c4cccc5cccc(c(c1)c23)c54 [perylene] | 6.25
c1ccc2cc3ccccc3cc2c1 [anthracene] | 4.50
